# Results reported in US8623860B2, “Azetidine derivatives, pharmaceutical compositions and uses thereof” (Boehringer Ingelheim International GmbH, priority 2011, dated 2014).
# Biological target: human ACC2 (Homo sapiens (Human), UniProt O00763)
# Test: ACC2 assay, spectrophotometric 384 well assay (NADH-linked, coupled lactate dehydrogenase/pyruvate kinase reaction)
# Type: biochemical
# Settings: hACC2 construct lacking the 128 N-terminal amino acids; 25° C., 340 nm, 15 minutes
# Description: Spectrophotometric 384 Well Assay
# Malonyl CoA formation by acetyl CoA carboxylases is stoichometrically linked to the consumption of ATP. ACC2 activity is measured in a NADH-linked kinetic method measuring ADP generated during the ACC reaction using a coupled lactate dehydrogenase/pyruvate kinase reaction.
# For biological testing, a human ACC2 construct which lacks the 128 amino acids at the N-terminus for increased solubility (nt 385-6966 in Genbank entry AJ575592) is cloned. The protein is then expressed in insect cells using a baculoviral expression system. Protein purification is performed by anion exchange.
# All compounds are dissolved in dimethyl sulfoxide (DMSO) to a concentration of 10 mM.
# Assay reactions are then carried out in 384-well plates, with hACC2 in an appropriate dilution and at final assay concentrations (f.c.) of 100 mM Tris (pH 7.5), 10 mM trisodium citrate, 25 mM KHCC3, 10 mM MgCl2, 0.5 mg/ml BSA, 3.75 mM reduced L-glutathione, 15 U/ml lactate dehydrogenase, 0.5 mM phosphoenolpyruvate, 15 U/ml pyruvate kinase, compounds at different concentrations at final DMSO concentrations of 1%.
# The enzymatic reaction is then started by addition of a mixture of NADH, acetyl Coenzyme A (both 200 μM f.c.) and ATP (500 uM f.c.). The decrease of the optical density (slope S) is then determined at 25° C. at a wavelength of 340 nm over 15 minutes in a spectrophotometric reader.
# Each assay microtiter plate contains wells with vehicle instead of compound as controls for the non-inhibited enzyme (100% CTL; ‘HIGH’) and wells without acetyl-CoA as controls for non-specific NADH degradation (0% CTL; ‘LOW’).
# The slope S is used for calculation of % CTL=(S(compound)−S(‘LOW’))/(S(‘HIGH’)−S(‘LOW’))*100. Compounds will give values between 100% CTL (no inhibition) and 0% CTL (complete inhibition).
# For IC50 value determination, the sample slope in the presence of the test compound after subtraction of the low controls (S(compound)−S(‘LOW’)) are used.
# An IC50 value is derived from the compound slopes at different dosages after subtraction of the low controls (S(compound)−S(‘LOW’)) by non-linear regression curve fitting (equation y=(A+((B−A)/(1+((C/x)^D))))).
# In the following table the activity expressed as IC50 (μM) of compounds according to the invention is presented wherein the IC50 values are determined in the ACC2 assay as described hereinbefore. The term “Ex.” refers to the example numbers according to the following experimental section.
# human ACC2, sequence (O00763 129-2458): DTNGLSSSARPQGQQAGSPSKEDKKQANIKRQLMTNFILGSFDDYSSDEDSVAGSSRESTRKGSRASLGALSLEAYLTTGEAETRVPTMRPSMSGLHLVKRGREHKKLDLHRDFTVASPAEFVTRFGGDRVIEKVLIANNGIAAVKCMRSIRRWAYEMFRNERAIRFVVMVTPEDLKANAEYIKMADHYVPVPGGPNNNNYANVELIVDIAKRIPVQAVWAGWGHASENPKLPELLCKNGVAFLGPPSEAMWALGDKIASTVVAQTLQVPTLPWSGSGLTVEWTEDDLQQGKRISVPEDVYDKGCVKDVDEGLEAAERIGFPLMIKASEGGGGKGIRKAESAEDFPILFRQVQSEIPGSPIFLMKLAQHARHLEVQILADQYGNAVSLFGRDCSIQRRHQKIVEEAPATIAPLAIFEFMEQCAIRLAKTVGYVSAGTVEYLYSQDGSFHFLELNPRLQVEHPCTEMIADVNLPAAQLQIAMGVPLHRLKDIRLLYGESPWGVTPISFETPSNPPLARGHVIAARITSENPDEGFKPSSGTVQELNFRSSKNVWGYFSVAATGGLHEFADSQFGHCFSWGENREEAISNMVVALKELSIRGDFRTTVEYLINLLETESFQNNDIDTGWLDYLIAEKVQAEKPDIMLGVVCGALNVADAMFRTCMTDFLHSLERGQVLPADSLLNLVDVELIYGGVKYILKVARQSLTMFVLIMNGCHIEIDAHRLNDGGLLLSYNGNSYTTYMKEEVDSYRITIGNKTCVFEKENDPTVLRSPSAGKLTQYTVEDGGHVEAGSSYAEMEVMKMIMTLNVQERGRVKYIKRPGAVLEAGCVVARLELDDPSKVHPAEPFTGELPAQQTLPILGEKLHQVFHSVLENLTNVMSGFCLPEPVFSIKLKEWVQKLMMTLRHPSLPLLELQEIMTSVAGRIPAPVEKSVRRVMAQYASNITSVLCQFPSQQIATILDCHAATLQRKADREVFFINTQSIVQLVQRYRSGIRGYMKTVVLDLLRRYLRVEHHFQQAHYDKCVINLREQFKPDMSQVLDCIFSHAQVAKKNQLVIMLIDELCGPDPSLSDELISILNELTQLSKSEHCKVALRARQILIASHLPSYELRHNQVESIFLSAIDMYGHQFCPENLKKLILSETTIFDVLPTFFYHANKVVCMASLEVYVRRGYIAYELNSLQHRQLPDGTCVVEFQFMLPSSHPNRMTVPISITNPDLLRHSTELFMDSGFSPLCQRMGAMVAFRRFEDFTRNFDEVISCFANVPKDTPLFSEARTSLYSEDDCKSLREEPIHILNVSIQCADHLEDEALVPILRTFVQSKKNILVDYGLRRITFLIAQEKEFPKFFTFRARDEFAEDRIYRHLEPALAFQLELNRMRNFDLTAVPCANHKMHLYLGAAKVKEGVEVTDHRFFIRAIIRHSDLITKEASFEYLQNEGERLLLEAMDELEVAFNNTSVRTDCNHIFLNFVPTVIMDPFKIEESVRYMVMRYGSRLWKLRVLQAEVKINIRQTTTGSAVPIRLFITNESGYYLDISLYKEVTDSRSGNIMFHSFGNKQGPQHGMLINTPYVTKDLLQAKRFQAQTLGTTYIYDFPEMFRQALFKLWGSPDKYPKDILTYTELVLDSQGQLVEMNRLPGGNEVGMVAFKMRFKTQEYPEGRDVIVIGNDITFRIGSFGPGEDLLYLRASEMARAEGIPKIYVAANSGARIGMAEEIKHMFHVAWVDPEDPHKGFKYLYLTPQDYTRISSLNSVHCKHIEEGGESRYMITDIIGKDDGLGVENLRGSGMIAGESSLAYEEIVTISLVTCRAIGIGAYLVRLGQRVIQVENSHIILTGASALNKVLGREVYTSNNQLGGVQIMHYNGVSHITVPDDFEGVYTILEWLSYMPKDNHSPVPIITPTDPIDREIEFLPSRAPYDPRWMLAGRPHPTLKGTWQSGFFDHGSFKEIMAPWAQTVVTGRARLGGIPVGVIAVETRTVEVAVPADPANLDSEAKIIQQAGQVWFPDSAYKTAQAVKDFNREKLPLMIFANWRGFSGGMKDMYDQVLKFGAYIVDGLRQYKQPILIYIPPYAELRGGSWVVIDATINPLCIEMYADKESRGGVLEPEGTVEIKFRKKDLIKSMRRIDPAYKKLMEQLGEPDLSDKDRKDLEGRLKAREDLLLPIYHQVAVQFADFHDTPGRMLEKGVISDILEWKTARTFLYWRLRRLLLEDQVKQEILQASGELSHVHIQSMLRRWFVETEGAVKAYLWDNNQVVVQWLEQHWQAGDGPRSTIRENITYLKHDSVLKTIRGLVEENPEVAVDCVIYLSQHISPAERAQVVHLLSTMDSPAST
row,IC50 [nM],SMILES
1,2960,C[C@H](NC(=O)Cc1cc[nH]c1)c1ccc(C2CN(c3ccc(OCC4CC4)cc3)C2)cc1 [Example 3.21]
2,2580,CCOCC(=O)N[C@@H](C)c1ccc(C2CN(c3ccc(OCC4CC4)cc3)C2)cc1 [Example 3.22]
3,1670,C[C@H](NC(=O)Cc1cccnc1)c1ccc(C2CN(c3ccc(OCC4CC4)cc3)C2)cc1 [Example 3.24]
4,1670,C[C@H](NC(=O)Cn1cncn1)c1ccc(C2CN(c3ccc(OCC4CC4)cc3)C2)cc1 [Example 3.29]
5,2060,COCCC(=O)N[C@@H](C)c1ccc(C2CN(c3ccc(OCC4CC4)cc3)C2)cc1 [Example 3.30]
6,1760,CC(C)C(=O)N[C@@H](C)c1ccc(C2CN(c3ccc(OCC4CC4)cc3)C2)cc1 [Example 3.32]
7,1520,C[C@H](NC(=O)c1ccns1)c1ccc(C2CN(c3ccc(OCC4CC4)cc3)C2)cc1 [Example 3.39]
8,940,CCC(=O)N[C@@H](C)c1ccc(C2CN(c3ccc(OCC4CC4)cc3)C2)cc1 [Example 3.42]
9,1150,C[C@H](NC(=O)C(C)(C)F)c1ccc(C2CN(c3ccc(OCC4CC4)cc3)C2)cc1 [Example 3.46]
10,1100,C[C@H](NC(=O)Cc1cncnc1)c1ccc(C2CN(c3ccc(OCC4CC4)cc3)C2)cc1 [Example 3.48]
11,2170,COCC(=O)N[C@@H](C)c1ccc(C2CN(c3ccc(OCC4CC4)cc3)C2)cc1 [Example 3.50]
12,710,C[C@H](NC(=O)c1cnco1)c1ccc(C2CN(c3ccc(OCC4CC4)cc3)C2)cc1 [Example 3.52]
13,2380,C#CCCC(=O)N[C@@H](C)c1ccc(C2CN(c3ccc(OCC4CC4)cc3)C2)cc1 [Example 3.53]
14,1330,CC(F)C(=O)N[C@@H](C)c1ccc(C2CN(c3ccc(OCC4CC4)cc3)C2)cc1 (stereo partly drawn) [Example 3.55]
15,700,C[C@H](NC(=O)C1CC1)c1ccc(C2CN(c3ccc(OCC4CC4)cc3)C2)cc1 [Example 3.56]
16,3010,C[C@H](NC(=O)c1ccnnc1)c1ccc(C2CN(c3ccc(OCC4CC4)cc3)C2)cc1 [Example 3.58]
17,1170,Cc1cc(CC(=O)N[C@@H](C)c2ccc(C3CN(c4ccc(OCC5CC5)cc4)C3)cc2)on1 [Example 3.60]
18,3080,C[C@H](NC(=O)C(C)(C)O)c1ccc(C2CN(c3ccc(OCC4CC4)cc3)C2)cc1 [Example 3.75]
19,1220,C[C@H](NC(=O)CC#N)c1ccc(C2CN(c3ccc(OCC4CC4)cc3)C2)cc1 [Example 3.78]
20,2440,C[C@H](NC(=O)CCO)c1ccc(C2CN(c3ccc(OCC4CC4)cc3)C2)cc1 [Example 3.80]
21,1400,C[C@H](NC(=O)c1ccon1)c1ccc(C2CN(c3ccc(OCC4CC4)cc3)C2)cc1 [Example 3.81]

# The next lines start with the compound.
row,SMILES,IC50 [nM]
1,CC(Cc1ccc(C2CN(c3ccc(OCC4CC4)cc3)C2)cc1)NC(=O)CCC#N (stereo not drawn) [Example 3.18],3050
2,C=CCC(=O)NC(C)Cc1ccc(C2CN(c3ccc4c(c3)OCCO4)C2)cc1 (stereo not drawn) [Example 3.19],2880
3,C[C@H](NC(=O)C1CCOC1)c1ccc(C2CN(c3ccc(OCC4CC4)cc3)C2)cc1 (stereo partly drawn) [Example 3.20],1020
4,COC1CC(C(=O)N[C@@H](C)c2ccc(C3CN(c4ccc(OCC5CC5)cc4)C3)cc2)C1 (stereo partly drawn) [Example 3.23],2650
5,Cc1ncsc1C(=O)N[C@@H](C)c1ccc(C2CN(c3ccc(OCC4CC4)cc3)C2)cc1 [Example 3.25],3010
6,C[C@H](NC(=O)C1(C)CC1)c1ccc(C2CN(c3ccc(OCC4CC4)cc3)C2)cc1 [Example 3.26],2420
7,C[C@H](NC(=O)C1CCCCO1)c1ccc(C2CN(c3ccc(OCC4CC4)cc3)C2)cc1 (stereo partly drawn) [Example 3.27],2860
8,CC(C#N)C(=O)N[C@@H](C)c1ccc(C2CN(c3ccc(OCC4CC4)cc3)C2)cc1 (stereo partly drawn) [Example 3.28],1210
9,CC(=O)Nc1nc(C(=O)N[C@@H](C)c2ccc(C3CN(c4ccc(OCC5CC5)cc4)C3)cc2)cs1 [Example 3.31],1640
10,C[C@H](NC(=O)C1CC(F)C1)c1ccc(C2CN(c3ccc4c(c3)OCCO4)C2)cc1 (stereo partly drawn) [Example 3.33],2870
11,C[C@H](NC(=O)C1CNC(=O)C1)c1ccc(C2CN(c3ccc(OCC4CC4)cc3)C2)cc1 (stereo partly drawn) [Example 3.34],2730
12,C[C@H](NC(=O)C1(C#N)CC1)c1ccc(C2CN(c3ccc(OCC4CC4)cc3)C2)cc1 [Example 3.35],1460
13,CC(=O)Nc1cccc(C(=O)N[C@@H](C)c2ccc(C3CN(c4ccc(OCC5CC5)cc4)C3)cc2)c1 [Example 3.36],2190
14,C[C@H](NC(=O)C1CC(F)C1)c1ccc(C2CN(c3ccc(OCC4CC4)cc3)C2)cc1 (stereo partly drawn) [Example 3.37],1170
15,Cc1nc(C(=O)N[C@@H](C)c2ccc(C3CN(c4ccc(OCC5CC5)cc4)C3)cc2)c(C)s1 [Example 3.38],1410
16,Cc1ncc(C(=O)N[C@@H](C)c2ccc(C3CN(c4ccc(OCC5CC5)cc4)C3)cc2)s1 [Example 3.40],1310
17,CC(=O)NCCCC(=O)N[C@@H](C)c1ccc(C2CN(c3ccc(OCC4CC4)cc3)C2)cc1 [Example 3.41],2070
18,Cc1ccc(C(=O)N[C@@H](C)c2ccc(C3CN(c4ccc(OCC5CC5)cc4)C3)cc2)o1 [Example 3.43],2570
19,C[C@H](NC(=O)c1cnco1)c1ccc(C2CN(c3ccc4c(c3)OCCO4)C2)cc1 [Example 3.44],1130
20,CC(C(=O)N[C@@H](C)c1ccc(C2CN(c3ccc(OCC4CC4)cc3)C2)cc1)C(F)(F)F (stereo partly drawn) [Example 3.47],2700
21,CC(=O)Nc1ncc(C(=O)N[C@@H](C)c2ccc(C3CN(c4ccc(OCC5CC5)cc4)C3)cc2)s1 [Example 3.49],1690

row,SMILES,IC50 [nM]
1,CC(=O)Nc1cncc(C(=O)N[C@@H](C)c2ccc(C3CN(c4ccc(OCC5CC5)cc4)C3)cc2)c1 [Example 3.51],2180
2,CC(=O)Nc1nc(C(=O)N[C@@H](C)c2ccc(C3CN(c4ccc(OCC5CC5)cc4)C3)cc2)co1 [Example 3.54],2360
3,C[C@H](NC(=O)c1cncs1)c1ccc(C2CN(c3ccc4c(c3)OCCO4)C2)cc1 [Example 3.57],1650
4,CC(=O)Nc1cc(C(=O)N[C@@H](C)c2ccc(C3CN(c4ccc(OCC5CC5)cc4)C3)cc2)ccn1 [Example 3.59],780
5,CC(F)C(=O)N[C@@H](C)c1ccc(C2CN(c3ccc4c(c3)OCCO4)C2)cc1 (stereo partly drawn) [Example 3.61],2520
6,CC(Cc1ccc(C2CN(c3ccc(OCC4CC4)cc3)C2)cc1)NC(=O)C1CCC1 (stereo not drawn) [Example 3.62],2910
7,CC(Cc1ccc(C2CN(c3ccc(OCC4CC4)cc3)C2)cc1)NC(=O)C1(C)CC1 (stereo not drawn) [Example 3.63],1220
8,C[C@H](NC(=O)C1CC1)c1ccc(C2CN(c3ccc4c(c3)OCCO4)C2)cc1 [Example 3.64],2460
9,Cc1nocc1C(=O)N[C@@H](C)c1ccc(C2CN(c3ccc4c(c3)OCCO4)C2)cc1 [Example 3.65],1180
10,C=CCC(=O)N[C@@H](C)c1ccc(C2CN(c3ccc4c(c3)OCCO4)C2)cc1 [Example 3.66],970
11,CC(=O)NCCCC(=O)NC(C)Cc1ccc(C2CN(c3ccc(OCC4CC4)cc3)C2)cc1 (stereo not drawn) [Example 3.67],1680
12,CCC(=O)N[C@@H](C)c1ccc(C2CN(c3ccc4c(c3)OCCO4)C2)cc1 [Example 3.68],1000
13,CC(=O)Nc1cc(C(=O)N[C@@H](C)c2ccc(C3CN(c4ccc5c(c4)OCCO5)C3)cc2)ccn1 [Example 3.69],2400
14,C[C@H](NC(=O)C(F)F)c1ccc(C2CN(c3ccc4c(c3)OCCO4)C2)cc1 [Example 3.70],1020
15,C[C@H](NC(=O)c1cnn(C)c1)c1ccc(C2CN(c3ccc4c(c3)OCCO4)C2)cc1 [Example 3.71],1690
16,CC(=O)Nc1nc(C)c(C(=O)N[C@@H](C)c2ccc(C3CN(c4ccc5c(c4)OCCO5)C3)cc2)s1 [Example 3.72],1970
17,C[C@H](NC(=O)c1ccon1)c1ccc(C2CN(c3ccc4c(c3)OCCO4)C2)cc1 [Example 3.73],2490
18,Cc1oncc1C(=O)NC(C)Cc1ccc(C2CN(c3ccc(OCC4CC4)cc3)C2)cc1 (stereo not drawn) [Example 3.74],960
19,Cc1oncc1C(=O)NC(C)Cc1ccc(C2CN(c3ccc4c(c3)OCCO4)C2)cc1 (stereo not drawn) [Example 3.76],2820
20,CC(Cc1ccc(C2CN(c3ccc(OCC4CC4)cc3)C2)cc1)NC(=O)c1ccon1 (stereo not drawn) [Example 3.77],1700
21,CCOC(=O)C1(F)CC1C(=O)NC(C)Cc1ccc(C2CN(c3ccc(OCC4CC4)cc3)C2)cc1 (stereo not drawn) [Example 3.79],2300
